Experimental data taken from PubChem BioAssay AID743405 (Broad Institute, 2014).
Activity calls are given as the source filed them.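 Rule for the calls: active = signal drops with AC50 under 10 µM, fitted no higher than twice the top valid tested dose; inactive = effect in the opposite direction, plus the rest.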

Test system: not listed separately
Test: NIH3T3 cell cytotoxicity, dose response, cytotoxicity control, plate reader, dry powder (AID 743405)
Settings: NIH3T3 viability, CellTiter-Glo ATP luminescence, 48 h; at 35 µM (top of the series)
In the case of Cc1nc(SCC(=O)Nc2nc3ccccc3s2)c(C#N)c(C)c1C, the activity change, negative = cytotoxicity is reported as -9.06% (inactive). For O=C(CN1C(=O)c2ccccc2S1(=O)=O)c1ccc(Cl)cc1Cl, the activity change, negative = cytotoxicity was 5.03% (inactive). For O=C(c1n[nH]c(=O)c2ccccc12)N1CCN(C2c3ccccc3-c3ccccc32)CC1, the activity change, negative = cytotoxicity was 8.43% (inactive). With O=C(O)c1cccc(COc2ccccc2Cl)c1 the activity change, negative = cytotoxicity was -3.99% (inactive). For Cc1ccc(CNC(=O)CSc2c3c(nc4ccc(Cl)cc24)CCCC3)o1, the activity change, negative = cytotoxicity was 11.2% (inactive). With O=C(CN1C(=O)c2ccccc2S1(=O)=O)c1ccc2c(c1)OCCCO2 the activity change, negative = cytotoxicity was 8.65% (inactive). With O=C1S/C(=C\c2ccc(N3CCOCC3)o2)C(=O)N1Cc1c(F)cccc1Cl the activity change, negative = cytotoxicity was 92.2% (inactive). For COc1ccc(-n2ncc3c(N4CCCCC4)ncnc32)cc1, the activity change, negative = cytotoxicity was -2.9% (inactive). For COc1ccc(CNC(=O)C(C)n2ccc3cc(S(=O)(=O)N4CCCCCC4)ccc32)cc1 (stereo not drawn), the activity change, negative = cytotoxicity was -0.861% (inactive). In the case of CCN(CC)Cc1c(O)ccc2c1O/C(=C\C=C\c1ccccc1)C2=O, the activity change, negative = cytotoxicity is reported as 9.2% (inactive). In the case of O=C(NCCc1ccccc1)c1ccc2c(c1)OCCO2, the activity change, negative = cytotoxicity is reported as 5.21% (inactive). With O=C(NCCc1ccccc1)c1ccc2c(c1)OCCCO2 the activity change, negative = cytotoxicity was 4.4% (inactive). In the case of COc1ccc(CNC(=O)C(c2ccc(C)cc2)N(Cc2cccs2)C(=O)c2ccc3c(c2)OCCO3)cc1 (stereo not drawn), the activity change, negative = cytotoxicity is reported as -4.92% (inactive). With CCSc1nnc(NC(=O)c2nc(S(=O)(=O)Cc3ccc(F)cc3)ncc2Cl)s1 the activity change, negative = cytotoxicity was 45.4% (inactive). For CCOC(=O)Cn1c(S(=O)(=O)Cc2ccccc2Cl)nc(-c2ccccc2)c1-c1ccccc1, the activity change, negative = cytotoxicity was 3.41% (inactive). With Cc1cc(S(=O)(=O)NCc2ccncc2)c(C)cc1Br the activity change, negative = cytotoxicity was -1.39% (inactive). In the case of Cc1cc(C(=O)COC(=O)c2ccccc2O)c(C)n1Cc1cccs1, the activity change, negative = cytotoxicity is reported as -7.18% (inactive). In the case of Cc1ccc(C(=O)Nc2cnc3ccccc3c2)cc1, the activity change, negative = cytotoxicity is reported as -0.872% (inactive).

Test system: NIH3T3 viability, CellTiter-Glo ATP luminescence, 48 h
Test: as above
Settings: not given
With COc1c(CC=C(C)C)cc(C2CC(=O)c3c(O)cc(O)cc3O2)cc1CC=C(C)C (stereo not drawn) the AC50 was 32.9 µM. With Cc1ccc(-c2cn3cc(C)ccc3n2)cc1 the AC50 was > 70 µM (inactive). Cc1c(C)c2ccc(OCC(=O)Nc3ccccn3)c(C)c2oc1=O showed an AC50 of 36.4 µM. For COc1ccc(OCc2cccc(C(=O)O)c2)cc1, the AC50 was > 70 µM (inactive). For Cc1cccc(CSc2cccc3cccnc23)c1, the AC50 was > 70 µM (inactive).
